Measured values taken from publication PMC9828099, “Aromatic disulfides as potential inhibitors against interaction between deaminase APOBEC3G and HIV infectivity factor” (Acta Biochimica et Biophysica Sinica, 2022).

Assays:
[1] = test system: HIV-1; conditions: MT4 and MAGI cells; cited from earlier work
[2] = target: T1, A3G-sNTD (Homo sapiens, UniProt Q9HC16); test: SPR binding of small molecules to A3G-sNTD; conditions: read-out: KD, binding affinity to A3G-sNTD
T1 sequence (Q9HC16 1-196): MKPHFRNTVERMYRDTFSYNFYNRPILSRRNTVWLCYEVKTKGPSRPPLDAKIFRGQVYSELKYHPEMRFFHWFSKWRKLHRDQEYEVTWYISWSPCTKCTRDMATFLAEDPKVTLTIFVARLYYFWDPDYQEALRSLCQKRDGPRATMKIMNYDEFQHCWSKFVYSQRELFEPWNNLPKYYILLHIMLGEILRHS
Method: (§1) Small molecules in the concentration of 500 μM were injected at 30 μL/min. The contact time is 100 s and dissociation time is 120 s. The chip was regenerated by glycine (pH 1.5) at a flow rate of 30 μL/min (30 s contact time). Then small molecules with high RU were selected to perform the 2 ^nd round screening. […] The data analyses were performed by BIAcore Evaluation.

[3] = target: T2, rVif (Human immunodeficiency virus type 1 group M subtype B, UniProt P12504); format: binding, HIV-1; conditions: SPR 1st round screening, small molecules at 500 μM
T2 construct: The cDNAs of full-length Vif (residues 1–192) was sub-cloned into the vector pET28a; made in house
Method: as §1

[4] = test system: interaction between A3G and Vif; design: method as in PMID 25724652; conditions: read-out: IC50, block of interaction between A3G and Vif; cited from earlier work
[5] = test system: Vif; conditions: fluorescent intensity of 293T cells; read-out: IC50, inhibition of Vif activity; cited from earlier work
[6] = target: full-length APOBEC3G (A3G-FL) (UniProt Q9HC16); test: SPR

T2 sequence (P12504 whole entry, the tested form may be a part): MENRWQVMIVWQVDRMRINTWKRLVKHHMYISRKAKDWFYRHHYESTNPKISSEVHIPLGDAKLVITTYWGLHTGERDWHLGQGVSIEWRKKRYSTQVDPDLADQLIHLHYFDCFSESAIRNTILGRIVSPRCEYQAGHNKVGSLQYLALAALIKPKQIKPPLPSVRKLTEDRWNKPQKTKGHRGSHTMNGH

For `O=C(O)Cn1c2c(c3c1=C(c1ccc(O)c(O)c1)C(=O)c1cc(O)c(O)cc1-3)-c1cc(O)c(O)cc1C(=O)C=2c1ccc(O)c(O)c1` [Baculiferin L], the “IC50, HIV-1 replication” value [1] is given as 0.5 to 7 µg/mL.

In the case of `O=C(O)Cn1c2c(c3c1=C(c1ccc(O)c(O)c1)C(=O)c1cc(O)c(OS(=O)(=O)O)cc1-3)-c1cc(O)c(O)cc1C(=O)C=2c1ccc(O)c(O)c1` [Baculiferin M], the “IC50, HIV-1 replication” value [1] is given as 0.5 to 7 µg/mL.

With `CCCCn1c(SCc2c(C)noc2C)nc2cc(S(N)(=O)=O)ccc21` [MM-2] the Kd [2] was 19.9 ± 11 µM and the “relative response value of binding to rVif” value [3] was 130.4 RU.

In the case of `C/C(=C/C(=O)c1cccnc1)Nc1ccc(O)cc1` [N.41], the IC50 [4] is listed as 2.18 µM.

For `COc1ccccc1NC(=O)c1ccccc1Sc1ccc([N+](=O)[O-])cc1` [RN-18], the IC50 [5] is given as 4.5 µM.

Work on “Vif-CBFβ-ELOB-ELOC (VCBC) complex (from UniProt P12504;Q13951;Q15370;Q15369)” yielded a Kd [6] of 0.00071 µM.
